Assay results from patent US9693992B2 (MannKind Corporation, priority 2010, dated 2017).

Target: IRE-1α (Homo sapiens (Human), UniProt O75460)
Assay: Cellular EC50: endogenous XBP-1 splicing in myeloma cells (MM.1s, DTT stress, RT-PCR)
Type: cell-based
Conditions: average cellular EC50, XBP-1 splicing in myeloma cells
Procedure: Human myeloma MM.1s cells are incubated with a compound for 1.25 hours before stressing the cells with 2 mM dithiothreitol (DTT). After an additional 45 minutes (2 hours total) with compound and DTT, the cells are harvested with TRIZOL® (a mono-phasic solution of phenol and guanidine isothiocyanate), and total RNA is prepared as directed by the manufacturer (Invitrogen). Human XBP-1 is amplified by RT-PCR with the following primers, which flank the 26 base unconventional intron excised by IRE-1α:
RT-PCR of unstressed (U) cells then generates the upper band. When cells are stressed (S) with the endoplasmic reticulum (ER) stressing agent DTT, IRE-1α is activated due to accumulating unfolded protein and the resulting RT-PCR product is 26 base pairs shorter.
Compounds which pass specificity assays are assayed for cellular EC50 using endogenous XBP-1 splicing in myeloma cells. XBP-1 is regulated through the excision of a 26 nucleotide intron from the XBP-1 mRNA by the highly specific endoribonuclease activity of IRE-1α. […] This splicing event is used to measure IRE-1α activity on XBP-1 mRNA in cells and tissues.
Briefly, compounds are incubated in the presence or absence of an ER stress agent (e.g., DTT), and the ratio of XBP-1u (unspliced) to XBP-1s (spliced) is quantified by RT-PCR. The ED50 is determined as the 50% XBP-1s to total XPB-1 levels.

Sequence of IRE-1α (O75460 19-977): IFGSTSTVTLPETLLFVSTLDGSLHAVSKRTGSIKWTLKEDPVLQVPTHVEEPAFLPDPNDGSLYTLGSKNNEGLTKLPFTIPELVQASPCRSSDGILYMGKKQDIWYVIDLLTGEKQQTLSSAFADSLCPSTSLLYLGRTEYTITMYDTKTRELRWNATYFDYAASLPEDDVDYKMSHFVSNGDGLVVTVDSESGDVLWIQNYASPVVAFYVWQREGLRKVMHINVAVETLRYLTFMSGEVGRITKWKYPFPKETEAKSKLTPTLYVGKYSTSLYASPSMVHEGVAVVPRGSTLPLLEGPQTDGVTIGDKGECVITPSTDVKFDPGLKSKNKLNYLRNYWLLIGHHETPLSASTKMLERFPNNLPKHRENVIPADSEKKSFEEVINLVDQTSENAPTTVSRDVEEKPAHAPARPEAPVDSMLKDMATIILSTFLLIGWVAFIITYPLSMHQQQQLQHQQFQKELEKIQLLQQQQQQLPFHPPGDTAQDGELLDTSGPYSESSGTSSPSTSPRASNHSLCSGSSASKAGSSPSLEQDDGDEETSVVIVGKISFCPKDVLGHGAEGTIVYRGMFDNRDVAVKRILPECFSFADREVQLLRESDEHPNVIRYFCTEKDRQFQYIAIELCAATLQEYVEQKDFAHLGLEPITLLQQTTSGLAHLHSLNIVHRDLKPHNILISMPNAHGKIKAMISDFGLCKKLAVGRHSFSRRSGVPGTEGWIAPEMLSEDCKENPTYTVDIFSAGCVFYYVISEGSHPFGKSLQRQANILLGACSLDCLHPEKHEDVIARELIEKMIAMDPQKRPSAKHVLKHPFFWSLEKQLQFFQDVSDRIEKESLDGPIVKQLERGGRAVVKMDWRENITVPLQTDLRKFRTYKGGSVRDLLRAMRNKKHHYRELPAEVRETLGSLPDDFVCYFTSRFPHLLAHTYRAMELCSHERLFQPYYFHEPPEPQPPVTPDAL

SMILES	EC50
COCCNC(=O)CCc1c(C)c2c(OC)cc(O)c(C=O)c2oc1=O [Example 194]	< 10 µM
COc1cc(O)c(C=O)c2oc(=O)c(CCC(=O)NCCN(C)C)c(C)c12 [Example 195]	< 10 µM
COc1cc(O)c(C=O)c2oc(=O)c(CCC(=O)NCCN3CCOCC3)c(C)c12 [Example 196]	< 10 µM
COc1cc2c(C(F)(F)F)cc(=O)oc2c(C=O)c1O [Example 197]	< 10 µM
COc1cc2c3c(c(=O)oc2c(C=O)c1O)CCC3 [Example 198]	< 10 µM
COc1cc2c(C)c(C)c(=O)oc2c(C=O)c1O [Example 199]	> 10 µM
COc1cc2c(C)c(C(C)C)c(=O)oc2c(C=O)c1O [Example 200]	> 10 µM
COCCNC(=O)CCc1c(C)c2cc(OCCN3CCOCC3)c(O)c(C=O)c2oc1=O [Example 202]	> 10 µM
Cc1c(C)c2cc(OCCN3CCOCC3)c(O)c(C=O)c2oc1=O [Example 203]	< 10 µM
CCNC(=O)CCc1c(C)c2cc(OCCN3CCOCC3)c(O)c(C=O)c2oc1=O [Example 204]	> 10 µM
COCCNC(=O)Cc1c(C)c2cc(OCCN3CCOCC3)c(O)c(C=O)c2oc1=O [Example 205]	10 µM
Cc1c(CC(=O)N2CCOCC2)c(=O)oc2c(C=O)c(O)c(OCCN3CCOCC3)cc12 [Example 206]	10 µM
COc1cc2c(=O)c(CC(=O)N3CCN(C)CC3)c(C)oc2c(C=O)c1O [Example 208]	> 10 µM
CCNC(=O)Cc1c(C)oc2c(C=O)c(O)c(OC)cc2c1=O [Example 209]	< 10 µM
COc1cc2c(=O)c(CC(=O)NCCN3CCOCC3)c(C)oc2c(C=O)c1O [Example 210]	> 10 µM
COc1cc2c(=O)c(CC(=O)NCCN(C)C)c(C)oc2c(C=O)c1O [Example 211]	> 10 µM
COCCNC(=O)CCc1c(C)oc2c(C=O)c(O)c(OC)cc2c1=O [Example 212]	> 10 µM
CCNC(=O)CCc1c(C)oc2c(C=O)c(O)c(OC)cc2c1=O [Example 213]	> 10 µM
COc1cc2c(=O)c(CCC(=O)NCCN(C)C)c(C)oc2c(C=O)c1O [Example 214]	> 10 µM
COCCNC(=O)CCc1c(C)oc2c(C=O)c(O)ccc2c1=O [Example 215]	< 10 µM
CCNC(=O)CCc1c(C)oc2c(C=O)c(O)ccc2c1=O [Example 217]	< 10 µM

SMILES	EC50
Cc1oc2c(C=O)c(O)ccc2c(=O)c1CCC(=O)NCCN(C)C [Example 218]	> 10 µM
COCCNC(=O)Cc1c(C)oc2c(C=O)c(O)ccc2c1=O [Example 220]	< 10 µM
Cc1oc2c(C=O)c(O)ccc2c(=O)c1CC(=O)N1CCN(C)CC1 [Example 222]	< 10 µM
CCNC(=O)Cc1c(C)oc2c(C=O)c(O)ccc2c1=O [Example 223]	< 10 µM
Cc1oc2c(C=O)c(O)ccc2c(=O)c1CC(=O)NCCN(C)C [Example 224]	> 10 µM
COCCNC(=O)Cc1c(C)oc2c(C=O)c(O)cc(OC)c2c1=O [Example 226]	< 10 µM
CCNC(=O)Cc1c(C)oc2c(C=O)c(O)cc(OC)c2c1=O [Example 228]	< 10 µM
Cc1nc2ccc(O)c(C=O)c2o1 [Example 256]	> 10 µM
COCCNC(=O)c1cc2c(C=O)c(O)ccc2s1 [Example 258]	> 10 µM
CCNC(=O)c1cc2c(C=O)c(O)ccc2s1 [Example 261]	< 10 µM
CN(C)CCNC(=O)c1cc2c(C=O)c(O)ccc2s1 [Example 263]	> 10 µM
COC(=O)Cc1cc2c(C=O)c(O)ccc2s1 [Example 264]	> 10 µM
O=Cc1c(O)ccc2sc(CC(=O)O)cc12 [Example 265]	> 10 µM
COCCNC(=O)CCc1cc2c(C=O)c(O)ccc2s1 [Example 266]	< 10 µM
CCNC(=O)CCc1cc2c(C=O)c(O)ccc2s1 [Example 269]	> 10 µM
CN(C)CCNC(=O)CCc1cc2c(C=O)c(O)ccc2s1 [Example 271]	< 10 µM
CN(C)CCNC(=O)c1cc2c(C=O)c(O)ccc2[nH]1 [Example 278]	> 10 µM
CCOC(=O)c1cc2c(C=O)c(O)ccc2o1 [Example 280]	> 10 µM
O=Cc1c(O)ccc2oc(C(=O)O)cc12 [Example 281]	> 10 µM
COCCNC(=O)c1cc2c(C=O)c(O)ccc2o1 [Example 282]	> 10 µM

The remaining lines, values ahead:

EC50	SMILES
< 10 µM	COc1cc(O)c(C=O)c2oc(=O)c(CCC(=O)N3CCOCC3)c(C)c12 [Example 192]
< 10 µM	COc1cc(O)c(C=O)c2oc(=O)c(CCC(=O)N3CCN(C)CC3)c(C)c12 [Example 193]
< 10 µM	Cc1c(CCC(=O)NCCN2CCOCC2)c(=O)oc2c(C=O)c(O)ccc12 [Example 201]
> 10 µM	COc1cc2c(=O)c(CC(=O)N3CCOCC3)c(C)oc2c(C=O)c1O [Example 207]
< 10 µM	Cc1oc2c(C=O)c(O)ccc2c(=O)c1CCC(=O)N1CCOCC1 [Example 216]
> 10 µM	Cc1oc2c(C=O)c(O)ccc2c(=O)c1CCC(=O)NCCN1CCOCC1 [Example 219]
> 10 µM	Cc1oc2c(C=O)c(O)ccc2c(=O)c1CC(=O)N1CCOCC1 [Example 221]
> 10 µM	Cc1oc2c(C=O)c(O)ccc2c(=O)c1CC(=O)NCCN1CCOCC1 [Example 225]
< 10 µM	COc1cc(O)c(C=O)c2oc(C)c(CC(=O)N3CCOCC3)c(=O)c12 [Example 227]
> 10 µM	Cn1c(CCC(=O)N2CCOCC2)nc2ccc(O)c(C=O)c21 [Example 229]
> 10 µM	CCNC(=O)CCc1nc2c(C=O)c(O)ccc2n1C [Example 230]
> 10 µM	COCCNC(=O)CCc1nc2c(C=O)c(O)ccc2[nH]1 [Example 231]
> 10 µM	O=Cc1c(O)ccc2[nH]c(CCC(=O)N3CCOCC3)nc12 [Example 232]
< 10 µM	CN1CCC(NC(=O)CCc2nc3c(C=O)c(O)ccc3[nH]2)CC1 [Example 233]
> 10 µM	CCNC(=O)CCc1nc2c(C=O)c(O)ccc2[nH]1 [Example 234]
> 10 µM	O=Cc1c(O)ccc2nc(CCC(=O)NCCN3CCOCC3)[nH]c12 [Example 235]
> 10 µM	CN(C)CCNC(=O)CCc1nc2c(C=O)c(O)ccc2[nH]1 [Example 236]
> 10 µM	COCCNC(=O)CCc1nc2ccc(O)c(C=O)c2n1C [Example 237]
> 10 µM	Cn1c(CCC(=O)NCCN2CCOCC2)nc2ccc(O)c(C=O)c21 [Example 238]
> 10 µM	CN1CCN(C(=O)CCc2nc3ccc(O)c(C=O)c3n2C)CC1 [Example 239]
> 10 µM	Cn1c(CCC(=O)O)nc2ccc(O)c(C=O)c21 [Example 240]
> 10 µM	COCCNC(=O)CCc1nc2c(C=O)c(O)ccc2n1C [Example 241]
> 10 µM	Cn1c(CCC(=O)N2CCOCC2)nc2c(C=O)c(O)ccc21 [Example 242]
> 10 µM	Cn1c(CCC(=O)NCCN2CCOCC2)nc2c(C=O)c(O)ccc21 [Example 243]
> 10 µM	CN1CCN(C(=O)CCc2nc3c(C=O)c(O)ccc3n2C)CC1 [Example 244]

EC50	SMILES
< 10 µM	CCOC(=O)CCc1nc2c(C=O)c(O)ccc2n1C [Example 245]
> 10 µM	Cn1c(CCC(=O)O)nc2c(C=O)c(O)ccc21 [Example 246]
> 10 µM	CCOC(=O)CCc1nc2c(C=O)c(O)ccc2o1 [Example 247]
> 10 µM	O=Cc1c(O)ccc2oc(CCC(=O)O)nc12 [Example 248]
> 10 µM	COCCNC(=O)CCc1nc2c(C=O)c(O)ccc2o1 [Example 249]
> 10 µM	O=Cc1c(O)ccc2oc(CCC(=O)N3CCOCC3)nc12 [Example 250]
> 10 µM	CN1CCN(C(=O)CCc2nc3c(C=O)c(O)ccc3o2)CC1 [Example 251]
> 10 µM	CCNC(=O)CCc1nc2c(C=O)c(O)ccc2o1 [Example 252]
< 10 µM	O=Cc1c(O)ccc2oc(CCC(=O)NCCN3CCOCC3)nc12 [Example 253]
> 10 µM	CC(C(=O)N1CCOCC1)c1nc2c(C=O)c(O)ccc2o1 (stereo not shown) [Example 254]
< 10 µM	Cc1nc2c(C=O)c(O)ccc2o1 [Example 255]
> 10 µM	O=Cc1c(O)ccc2ocnc12 [Example 257]
> 10 µM	O=Cc1c(O)ccc2sc(C(=O)N3CCOCC3)cc12 [Example 259]
> 10 µM	CN1CCN(C(=O)c2cc3c(C=O)c(O)ccc3s2)CC1 [Example 260]
< 10 µM	O=Cc1c(O)ccc2sc(C(=O)NCCN3CCOCC3)cc12 [Example 262]
> 10 µM	CCOC(=O)CCc1cc2c(C=O)c(O)ccc2s1 [Example 267]
> 10 µM	O=Cc1c(O)ccc2sc(CCC(=O)N3CCOCC3)cc12 [Example 268]
> 10 µM	COCCNC(=O)c1cc2c(C=O)c(O)ccc2[nH]1 [Example 273]
> 10 µM	O=Cc1c(O)ccc2[nH]c(C(=O)N3CCOCC3)cc12 [Example 274]
> 10 µM	CN1CCN(C(=O)c2cc3c(C=O)c(O)ccc3[nH]2)CC1 [Example 275]
> 10 µM	CCNC(=O)c1cc2c(C=O)c(O)ccc2[nH]1 [Example 276]
> 10 µM	O=Cc1c(O)ccc2[nH]c(C(=O)NCCN3CCOCC3)cc12 [Example 277]
> 10 µM	CCOC(=O)c1cc2c(C=O)c(O)ccc2[nH]1 [Example 279]
> 10 µM	O=Cc1c(O)ccc2oc(C(=O)N3CCOCC3)cc12 [Example 283]
> 10 µM	CN1CCN(C(=O)c2cc3c(C=O)c(O)ccc3o2)CC1 [Example 284]
